Test results published in BindingDB's records for doi:10.1021/jm0605482 (Amgen, 2006).

Target: Aurora kinase B (Homo sapiens) (UniProt Q96GD4)
Assay: Inhibition of Aurora1 by HTRF kinase assay

Aurora kinase B (Homo sapiens), sequence (Q96GD4 whole entry, looked up): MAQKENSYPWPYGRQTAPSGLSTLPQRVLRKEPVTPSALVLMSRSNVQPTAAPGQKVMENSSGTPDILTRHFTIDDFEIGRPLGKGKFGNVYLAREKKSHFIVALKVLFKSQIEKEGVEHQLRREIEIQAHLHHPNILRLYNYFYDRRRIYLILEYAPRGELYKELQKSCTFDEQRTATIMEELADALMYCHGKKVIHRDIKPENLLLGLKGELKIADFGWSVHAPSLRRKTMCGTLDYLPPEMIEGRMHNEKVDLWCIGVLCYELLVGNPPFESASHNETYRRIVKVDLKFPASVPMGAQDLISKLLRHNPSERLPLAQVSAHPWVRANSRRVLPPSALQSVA

CNc1ncc2cc(-c3cc(C(=O)Nc4cc(C(F)(F)F)ccc4OC4CCN(C)CC4)ccc3C)ccc2n1 [4-methyl-3-(2-(methylamino)quinazolin-6-yl)-N-(2-(1-methylpiperidin-4-yloxy)-5-(trifluoromethyl)phenyl)benzamide]
IC50: > 5 µM
